The nature of data set [1]: Solubility in DMSO / DMSO-d6 observed during 1H NMR. The format is physicochemical. Particulars: DMSO / DMSO-d6, NMR sample. The protocol:
^1H NMR was used to confirm the presence of AD in the AD-EM (Figure S1). Both EM and AD-EM were dissolved in deuterated dimethyl sulfoxide (DMSO-d6) and spectra acquired. The spectra are in agreement with the reported literature spectra, thus we looked to see changes in the spectra following the conjugation reaction. The processed spectra of each species were compared to monitor structural differences between protons from EM and AD-EM. The AD-EM spectra confirms the presence of both AD and EM, as well as hydrazone formation, indicating successful reaction. In the NMR spectra of AD-EM, AD attachment is confirmed by the presence of two multiplet peaks at approximately 1.9 ppm and from 1.6–1.8 ppm, corresponding to protons from the fused cyclohexane rings of AD. In the spectra of the AD-EM, a singlet peak, corresponding to a hydrazone, appears at 9.0 ppm. […] However, peak placement is consistent between AD-EM and EM, indicating the presence of both species in the AD-EM conjugate.
EM (approximately 40 mg) and AD-EM (approximately 40 mg) were dissolved in 500 µL of DMSO-d6, and sonication was used to promote dissolution. Samples were analyzed on a 600 MHz Varian Nuclear Magnetic Resonance Spectrometer, using 128 scans and a 45 degree pulse angle. Spectra were analyzed using MesReNova software using the residual solvent peak from DMSO-d6 as the reference.

Data set [2] is described as follows: Acidic stability / acidic conversion absorbance spectral scan. The data set is classed as physicochemical. The following applies: for Acidic conversion over several hours (absorbance pattern, words): pH 5.0 vs neutral vs acidic later neutralized, t = several hours. The protocol: The PBS solution was diluted to a concentration of 70 μM and concentrated sulfuric acid ([…]) was added to the solution in a volume equal to that of the total volume of the initial 70 µM solution to elicit a color change detectable with absorbance spectroscopy. Two separate solutions were initially created with the acetate buffer. One solution was diluted to 70 μM and allowed to sit for several hours at room temperature. The other acetate solution was diluted to a slightly higher concentration, sat for 1 h at room temperature, was neutralized with sodium hydroxide (0.1 N) (such that the concentration of the solution was 70 µM), and sat for several more hours at room temperature. Both acetate solutions were treated with equal volumes of sulfuric acid to elicit a color change.

Data set [3] concerns S. aureus. Kind of data set: Zone of inhibition antibacterial study with drug-loaded insoluble cyclodextrin polymer disks. The data set is classed as cell-based, Staphylococcus aureus. Particulars: approximately two weeks. The protocol: A zone of inhibition study against S. aureus was conducted for approximately two weeks using EM and AD-EM loaded into insoluble cyclodextrin polymer disks to evaluate whether the chemical modification altered the intrinsic antimicrobial activity of EM (Figure 4). […] It is possible that the slight decrease in antibacterial activity after 8 days in AD-EM (compared to EM) can be attributed to the presence of both species in the final AD-EM composition.
Synthesis of insoluble cyclodextrin polymer disks was carried out according to a previously published protocol by Thatiparti et al.. Briefly, 1 g cyclodextrin (CycloLab, Budapest, Hungary) was dissolved in 4 mL dimethylformamide (DMF) and stirred. The solution was cross-linked with hexamethylene diisocyanate (HDI; Sigma Aldrich, St. Louis, MO, USA) in a molar ratio of 1:0.16 (glucose residue: HDI). The solution was cured at 70 °C for 45 min and punched into 8 mm disks. Disks were washed to removed unreacted products over several days in 100% DMF, 50:50 DMF:water, and 100% water before use. […]
The antibacterial activity of EM and AD-EM loaded insoluble cyclodextrin polymer disks was evaluated against S. aureus (GFP labeled S. aureus kindly provided by Ed Greenfield, Case Western Reserve University, Cleveland, OH, USA) according to the protocol outlined by Thatiparti et al.. […]

The test system of data set [4] is S. aureus biofilms. Kind of data set: Bacterial biofilm penetration study (colonies remaining in mature biofilm). The data set is classed as cell-based, Staphylococcus aureus. Particulars: for % Control Colonies Remaining: 1.25 mg/mL, mature (72 h) biofilm, vs 90% PBS/10% DMSO control; for Original colonies in the biofilm eradicated: 1 h exposure; for Original colonies killed: 7 h exposure; for Additional killing compared to the 7 h time point: 24 h exposure. The protocol: The ability to penetrate through the biofilm is related to the number of bacteria remaining in the biofilm after exposure to a drug compared to the control condition (90% PBS/10% DMSO). The control condition was set-up in such a way that the biofilm coated cyclodextrin polymer was placed in a solution under the same conditions used to make the drug-containing solutions. The colonies remaining in the biofilms after 1, 7, and 24 h after being treated with AD-EM, EM, or the control solution are reported in Table 2, where the remaining colonies from drug-treated biofilms are compared to the number of colonies in a control solution. After only 1 h of exposure to the drug (AD-EM or EM), nearly 30% of the original colonies in the biofilm were eradicated, and after 7 h of drug (AD-EM or EM) exposure >85% of the original colonies were killed. […] We hypothesize that this could be due to presence of planktonic bacteria naturally resistant to antibiotic effect, as well as the development of drug-resistant bacteria that are unable to be fully eradicated even after extended periods of exposure time to the drug. […] High variability in the studies reflects both the inconsistent nature of the biofilm as well as difficulty recovering bacteria to make accurate counts.
5 mm insoluble cyclodextrin polymer disks were placed in 3 mL solutions of 2× Trypticase soy broth with 30 μL of freshly cultured GFP-labeled S. aureus. Solutions were incubated at 37 °C for 72 h to form a mature biofilm. Each condition was set-up in triplicate. Following incubation, polymer disks were removed from the bacterial culture, excess broth removed, and placed in a 1.25 mg/mL drug solution of either EM or AD-EM dissolved in PBS with 10% DMSO. As a control, biofilm coated disks were also placed in a solution of just PBS and 10% DMSO. Each solution was placed in a laboratory shaker at 37 °C for either 1, 7, or 24 h. After this time, disks were removed from the drug solution, dried off, and placed in 4 mL of sterile Trypticase soy broth and homogenized for 30 s with an Omni TH homogenizer. Then, 70 μL of each solution was spread in duplicate on Trypticase soy agar plates and incubated overnight. Bacterial colonies were then counted and averaged using ImageJ software. Bacterial eradication was calculated as the percentage of colonies remaining in drug treated samples after different time points compared to the control colonies at that time point.

A short description of data set [5]: Solubility study in aqueous buffers and organic solvents. The format is physicochemical. How it is done: The solubility of AD-EM compared to EM was evaluated in several different aqueous buffers (i.e., PBS, Water, Acetate pH 5.0) and polar solvents (i.e., methanol, ethyl acetate, acetone). The solubility study presented in Table 1 further verifies that modified AD-EM is more hydrophobic than EM due to the addition of the hydrophobic AD group. […] The increased hydrophobicity of AD-EM is desirable to enhance its ability to bind to tissue, thereby increasing its tissue residence time and therapeutic activity.
Small samples of both EM and AD-EM (1–3 mg samples for aqueous solvents (water, PBS (pH 7.4), and acetate buffer (pH 5.0)); 10 mg samples for methanol, ethyl acetate, and acetone) were placed in individual vials. Each solvent was gradually added to either the EM or AD-EM samples in 50–100 µL increments until the drug sample was completely dissolved and the solution was homogeneous. Three trials were completed for each drug in each solvent and the results are reported as an average of these three trials. The solubility limit of each drug was determined to be the minimum amount of volume of each solvent where the drug was completely soluble.

Data set [6] has as its system S. aureus biofilms. Description: Bacterial biofilm penetration study (colonies remaining in mature biofilm). The format is cell-based, Staphylococcus aureus. Particulars: 48 and 72 h exposure, data not shown.
Where [7] appears, read: aqueous buffer, thermodynamic from solid, Acetate buffer, pH 5.0, n = 3, read-out: Relative solubility in acetate buffer.
The mark [8] stands for this setting: aqueous buffer, thermodynamic from solid, Phosphate Buffered Saline (PBS), pH 7.4, n = 3, read-out: Relative solubility in PBS.
Where [9] appears, read: organic solvent or mixture, thermodynamic from solid, Acetone, n = 3, read-out: Relative solubility in acetone.
[10] abbreviates: organic solvent or mixture, thermodynamic from solid, Ethyl Acetate, n = 3, read-out: Relative solubility in ethyl acetate.
Where [11] appears, read: organic solvent or mixture, thermodynamic from solid, Methanol, n = 3, read-out: Relative solubility in methanol.
The mark [12] stands for this setting: thermodynamic from solid, Water, n = 3, read-out: Relative solubility in water.

≈ marks a conversion by molar mass, not a printed value. Where two headings read alike, the source gives them in different places.

In the case of `NNC(=O)C12CC3CC(CC(C3)C1)C2` [AD, adamantane-1-carbohydrazide], the “Solubility in DMSO” value in data set [1] is reported as “completely insoluble”.
`CC[C@H]1OC(=O)[C@H](C)[C@@H](OC2C[C@@](C)(OC)[C@@H](O)[C@H](C)O2)[C@H](C)[C@@H](OC2O[C@H](C)C[C@H](N(C)C)[C@H]2O)[C@](C)(O)C[C@@H](C)/C(=N\NC(=O)C23CC4CC(CC(C4)C2)C3)[C@H](C)[C@@H](O)[C@]1(C)O` (stereo partly drawn) [AD-EM, adamantane-modified erythromycin]: the “Solubility in DMSO” value in data set [1] is listed as “slightly insoluble”. Moreover, in data set [2], the “Acidic conversion over several hours (absorbance pattern, words)” value is “no distinguishable differences”. The “Acidic conversion over several days (absorbance signal, words)” value in data set [2] (pH 5.0 vs neutral, t = several days) is “lower absorbance signal than in neutral conditions”. For the same compound, the “Zone of inhibition activity” value in data set [3] is listed as “comparable activity”. Also, the “% Control Colonies Remaining” value in data set [4] (1 h drug incubation) is given as 62.7% ± 22.1%; in data set [4] (7 h drug incubation), 14.8% ± 13.7%; in data set [4] (24 h drug incubation), 11.7% ± 7.9%. Besides, the “Original colonies in the biofilm eradicated” value in data set [4] is about 30%. Also, in data set [4], the Original colonies killed is given as over 85%. The “Additional killing compared to the 7 h time point” value in data set [4] is given as ~ 2%. In addition, the solubility in data set [5] (setting [7]) is 1390 ± 40 µg/mL (≈ 1.53 mM); in data set [5] (setting [8]), 340 ± 10 µg/mL (≈ 0.374 mM); in data set [5] (setting [9]), 37500 µg/mL (≈ 41.2 mM); in data set [5] (setting [10]), over 40000 µg/mL; in data set [5] (setting [11]), 7300 ± 200 µg/mL (≈ 8.02 mM); in data set [5] (several polar solvents, comparable to EM, read-out: Solubility in several polar solvents) it was about 40000 µg/mL (≈ 43.9 mM). Besides, the solubility in data set [5] (setting [12]) is 330 ± 30 µg/mL (≈ 0.363 mM).
Take `CC[C@H]1OC(=O)[C@H](C)[C@@H](O[C@H]2C[C@@](C)(OC)[C@@H](O)[C@H](C)O2)[C@H](C)[C@@H](O[C@@H]2O[C@H](C)C[C@H](N(C)C)[C@H]2O)[C@](C)(O)C[C@@H](C)C(=O)[C@H](C)[C@@H](O)[C@]1(C)O` [EM, Erythromycin]: the “Absorbance signal in acidic solution” value in data set [2] (acetate pH 5.0, several hours, after 27 N sulfuric acid, 35 μM final) worked out at 0.17. For the same compound, the “Absorbance signal, acidic solution later neutralized” value in data set [2] (acetate pH 5.0 then neutralized with NaOH, several hours) is recorded as 0.22. In addition, in data set [2] (neutral PBS, after 27 N sulfuric acid, 35 μM final), the “Absorbance signal in neutral solution” value is given as 0.22. The “Acidic conversion over several hours (absorbance pattern, words)” value in data set [2] is reported as “noticeable acidic conversion”. Also, the “Colonies remaining after extended exposure” value in data set [6] is on record as “approximately the same number of colonies remained”. The “Zone of inhibition activity” value in data set [3] is “comparable activity”. The entries for the “% Control Colonies Remaining” value in data set [4] (1 h drug incubation), in data set [4] (7 h drug incubation) and in data set [4] (24 h drug incubation) were 71.6% ± 40.2%, 10.5% ± 6.8% and 8.3% ± 6.6%, respectively. For the same compound, in data set [4], the “Original colonies in the biofilm eradicated” value was about 30%. This compound also showed an Original colonies killed in data set [4] of over 85%. For the same compound, the “Additional killing compared to the 7 h time point” value in data set [4] is recorded as ~ 2%. Also, the solubility is 15000 µg/mL (≈ 20.4 mM) in data set [5] (setting [7]); 1600 ± 400 µg/mL (≈ 2.18 mM) in data set [5] (setting [8]); over 40000 µg/mL in data set [5] (setting [9]); over 40000 µg/mL in data set [5] (setting [10]); over 40000 µg/mL in data set [5] (setting [11]); 1500 ± 200 µg/mL (≈ 2.04 mM) in data set [5] (setting [12]).

For orientation: solubility means the concentration that dissolves in the medium under given conditions.
